Measured values published in patent US7528148B2, “Pyrazolo[3,4-B]pyridine compounds, and their use as phosphodiesterase inhibitors” (Glaxo Group Limited, priority 2002, dated 2009).

What follows are compounds tested against T1, PDE4B (human recombinant) (Homo sapiens, UniProt Q07343) (assay: PDE4B inhibition, radioactive SPA or IMAP fluorescence polarisation (FP) assay). Details: one reading or average of ca. 2-6 readings, accurate only to about ±0.5 log unit, read-out: PDE4B pIC50 (±about 0.5) (converted).
T1 construct: made in house; host or cells: Saccharomyces cerevisiae strain GL62 (PDE-deficient)
T1 sequence (Q07343 1-564 isoform Q07343-2): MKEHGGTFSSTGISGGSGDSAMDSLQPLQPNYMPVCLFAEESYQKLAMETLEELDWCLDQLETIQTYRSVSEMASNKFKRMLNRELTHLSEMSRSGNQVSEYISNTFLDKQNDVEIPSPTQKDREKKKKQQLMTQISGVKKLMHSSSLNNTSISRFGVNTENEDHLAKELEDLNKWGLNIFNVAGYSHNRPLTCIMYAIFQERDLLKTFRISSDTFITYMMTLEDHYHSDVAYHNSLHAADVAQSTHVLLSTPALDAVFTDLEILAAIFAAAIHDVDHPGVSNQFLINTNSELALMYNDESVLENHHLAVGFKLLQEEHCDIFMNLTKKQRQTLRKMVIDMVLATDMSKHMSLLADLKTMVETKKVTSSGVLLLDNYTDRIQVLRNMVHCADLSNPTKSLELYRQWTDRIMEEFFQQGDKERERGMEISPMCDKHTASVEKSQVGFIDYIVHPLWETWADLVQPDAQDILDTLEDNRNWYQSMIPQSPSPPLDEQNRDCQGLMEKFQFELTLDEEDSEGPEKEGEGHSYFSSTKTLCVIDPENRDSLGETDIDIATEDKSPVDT
Type: biochemical
Description: Human recombinant PDE4B, in particular the 2B splice variant thereof (HSPDE4B2B), is disclosed in WO 94/20079 and also M. M. McLaughlin et al., “A low Km, rolipram-sensitive, cAMP-specific phosphodiesterase from human brain: cloning and expression of cDNA, biochemical characterisation of recombinant protein, and tissue distribution of mRNA”, J. Biol. Chem., 1993, 268, 6470-6476. Human recombinant PDE4B was expressed in the PDE-deficient yeast Saccharomyces cerevisiae strain GL62. 100,000×g supernatant fractions of yeast cell lysates were used for PDE4B assays and inhibitor studies.
The ability of compounds to inhibit catalytic activity at PDE4B or 4D (human recombinant), PDE3 (from bovine aorta) or PDE5 (human recombinant) or PDE6 (from bovine retina) was determined by Scintillation Proximity Assay (SPA) in 96-well format. Test compounds (preferably as a solution in DMSO, e.g. about 2 microlitre (ul) volume of DMSO solution) were preincubated at ambient temperature (room temperature, e.g. 19-23° C.) in Wallac Isoplates (code 1450-514) with PDE enzyme in 50 mM Tris-HCl buffer pH 7.5, 8.3 mM MgCl2, 1.7 mM EGTA, 0.05% (w/v) bovine serum albumin for 10-30 minutes (usually 30 minutes). The enzyme concentration was adjusted so that no more than 20% hydrolysis of the substrate defined below occurred in control wells without compound, during the incubation. For PDE3, PDE4B and PDE4D assays, [5′,8-^3H]Adenosine 3′,5′-cyclic phosphate (Amersham Pharmacia Biotech, code TRK.559; or Amersham Biosciences UK Ltd, Pollards Wood, Chalfont St Giles, Buckinghamshire HP8 4SP, UK) was added to give 0.05 uCi per well and ˜10 nM final concentration. For the PDE5 and PDE6 assay [8-^3H]Guanosine 3′,5′-cyclic phosphate (Amersham Pharmacia Biotech, code TRK.392) was added to give 0.05 uCi per well and ˜36 nM final concentration. Plates, preferably containing approx. 100 ul volume of assay mixture, were mixed on an orbital shaker for 5 minutes and incubated at ambient temperature for 1 hour. Phosphodiesterase SPA beads (Amersham Pharmacia Biotech, code RPNQ 0150) were added (˜1 mg per well) to terminate the assay. Plates were sealed and shaken and allowed to stand at ambient temperature for 35 minutes to 1 hour (preferably 35 minutes) to allow the beads to settle. Bound radioactive product was measured using a WALLAC TRILUX 1450 Microbeta scintillation counter. For inhibition curves, 10 concentrations ([…]) of each compound were assayed. Curves were analysed using ActivityBase and XLfit (ID Businesss Solutions Limited, 2 Ocean Court, Surrey Research Park, Guildford, Surrey GU2 7QB, United Kindgom) Results were expressed as pIC50 values.
The ability of compounds to inhibit catalytic activity at PDE4B (human recombinant) or PDE4D (human recombinant) was determined by IMAP Fluorescence Polarisation (FP) assay (IAP Explorer kit, available from Molecular Devices Corporation, Sunnydale, Calif., USA; Molecular Devices code: R8062) in 384-well format. The IMAP FP assay is able to measure PDE activity in an homogenous, non-radioactive assay format. The FP assay uses the ability of immobilised trivalent metal cations, coated onto nanoparticles (tiny beads), to bind the phosphate group of Fl-AMP that is produced on the hydrolysis of fluorescein-labelled (Fl) cyclic adenosine mono-phosphate (Fl-cAMP) to the non-cyclic Fl-AMP form. […] Binding of Fl-AMP product to the beads (coated with the immobilised trivalent cations) slows the rotation of the bound Fl-AMP and leads to an increase in the fluorescence polarisation ratio of parallel to perpendicular light. Inhibition of the PDE reduces/inhibits this signal increase. […]

| SMILES | IC50 |
| --- | --- |
| CCn1ncc2c(Nc3ccc(F)cc3)c(-c3nc(C)no3)cnc21 [Example 7, 1-Ethyl-N-(4-fluorophenyl)-5-(3-methyl-1,2,4-oxadiazol-5-yl)-1H-pyrazolo[3,4-b]pyridin-4-amine] | 63.1 to 251 nM |
| CCn1ncc2c(NC3CCOCC3)c(-c3nnc(C4CCOCC4)o3)c(C)nc21 [Example 66, 1-Ethyl-6-methyl-N-(tetrahydro-2H-pyran-4-yl)-5-[5-(tetrahydro-2H-pyran-4-yl)-1,3,4-oxadiazol-2-yl]-1H-pyrazolo[3,4-b]pyridin-4-amine] | 0.794 to 31.6 nM |
| CCn1ncc2c(NC3CCCOC3)c(-c3nnc(C)o3)cnc21 (stereo not shown) [Example 62, 1-Ethyl-5-(5-methyl-1,3,4-oxadiazol-2-yl)-N-(tetrahydro-2H-pyran-3-yl)-1H-pyrazolo[3,4-b]pyridin-4-amine] | 0.794 to 31.6 nM |
| CCn1ncc2c(NC3CCOCC3)c(-c3nnc(C4(C)COC4)o3)cnc21 [Example 34, 1-Ethyl-5-[5-(3-methyloxetan-3-yl)-1,3,4-oxadiazol-2-yl]-N-(tetrahydro-2H-pyran-4-yl)-1H-pyrazolo[3,4-b]pyridin-4-amine] | 0.794 to 31.6 nM |
| CCCn1ncc2c(NC3CCOCC3)c(-c3nnc(C)o3)cnc21 [Example 43, 1-n-Propyl-5-(5-methyl-1,3,4-oxadiazol-2-yl)-N-(tetrahydro-2H-pyran-4-yl)-1H-pyrazolo[3,4-b]pyridin-4-amine] | 63.1 to 251 nM |
| CCn1ncc2c(N(C)C3CCOCC3)c(-c3nnc(C)o3)cnc21 [Example 60, 1-Ethyl-N-methyl-5-(5-methyl-1,3,4-oxadiazol-2-yl)-N-(tetrahydro-2H-pyran-4-yl)-1H-pyrazolo[3,4-b]pyridin-4-amine] | 63.1 to 251 nM |
| CCn1ncc2c(NC3CCOCC3)c(-c3nnc(CC4CCOCC4)o3)cnc21 [Example 77, 1-Ethyl-N-(tetrahydro-2H-pyran-4-yl)-5-[5-(tetrahydro-2H-pyran-4-ylmethyl)-1,3,4-oxadiazol-2-yl]-1H-pyrazolo[3,4-b]pyridin-4-amine] | 0.794 to 31.6 nM |
| CCn1ncc2c(NC3CCC(=O)CC3)c(-c3nnc(C)o3)cnc21 [Example 63, 4-{[1-Ethyl-5-(5-methyl-1,3,4-oxadiazol-2-yl)-1H-pyrazolo[3,4-b]pyridin-4-yl]amino}cyclohexanone] | 0.794 to 31.6 nM |
| CCn1ncc2c(NC3CCOCC3)c(C3=NC(C)CO3)cnc21 (stereo not shown) [Example 42, 1-Ethyl-5-(4-methyl-4,5-dihydro-1,3-oxazol-2-yl)-N-(tetrahydro-2H-pyran-4-yl)-1H-pyrazolo[3,4-b]pyridin-4-amine] | 5.01 nM |
| CCn1ncc2c(NC3CCOCC3)c(-c3nnc(Cc4nonc4C)o3)cnc21 [Example 71, 1-Ethyl-5-{5-[(4-methyl-1,2,5-oxadiazol-3-yl)methyl]-1,3,4-oxadiazol-2-yl}-N-(tetrahydro-2H-pyran-4-yl)-1H-pyrazolo[3,4-b]pyridin-4-amine] | 0.794 to 31.6 nM |
| CCCN(c1c(-c2nnc(C)o2)cnc2c1cnn2CC)C1CCOCC1 [Example 64, 1-Ethyl-5-(5-methyl-1,3,4-oxadiazol-2-yl)-N-n-propyl-N-(tetrahydro-2H-pyran-4-yl)-1H-pyrazolo[3,4-b]pyridin-4-amine] | 63.1 to 251 nM |
| CCn1ncc2c(NC3CCN(C(C)=O)CC3)c(-c3nc(CN4CCOCC4)no3)cnc21 [Example 48, N-(1-Acetylpiperidin-4-yl)-1-ethyl-5-[3-(morpholin-4-ylmethyl)-1,2,4-oxadiazol-5-yl]-1H-pyrazolo[3,4-b]pyridin-4-amine] | 63.1 to 251 nM |
| CCn1ncc2c(NC3CCCCC3)c(-c3nnc(C(C)C)o3)cnc21 [Example 10, N-Cyclohexyl-1-ethyl-5-(5-isopropyl-1,3,4-oxadiazol-2-yl)-1H-pyrazolo[3,4-b]pyridin-4-amine] | 6.31 nM |
| CCn1ncc2c(NC3CCCCC3)c(-c3nnc(CS(C)(=O)=O)o3)cnc21 [Example 24, N-Cyclohexyl-1-ethyl-5-{5-[(methylsulfonyl)methyl]-1,3,4-oxadiazol-2-yl}-1H-pyrazolo[3,4-b]pyridin-4-amine] | 6.31 nM |
| CCn1ncc2c(NC3CCOCC3)c(C3=N[C@@H](c4ccccc4)CO3)cnc21 [Example 50, 1-Ethyl-5-[(4S)-4-phenyl-4,5-dihydro-1,3-oxazol-2-yl]-N-(tetrahydro-2H-pyran-4-yl)-1H-pyrazolo[3,4-b]pyridin-4-amine] | 0.794 to 31.6 nM |
| CCn1ncc2c(NC3CCOCC3)c(-c3nc(C(=O)N4CCOCC4)co3)cnc21 [Example 59, 1-Ethyl-5-[4-(4-morpholinylcarbonyl)-1,3-oxazol-2-yl]-N-(tetrahydro-2H-pyran-4-yl)-1H-pyrazolo[3,4-b]pyridin-4-amine] | 0.794 to 31.6 nM |
| CCn1ncc2c(NC3CCCC3)c(-c3nnc(CS(C)(=O)=O)o3)cnc21 [Example 2, N-Cyclopentyl-1-ethyl-5-{5-[(methylsulfonyl)methyl]-1,3,4-oxadiazol-2-yl}-1H-pyrazolo[3,4-b]pyridin-4-amine] | 0.794 to 31.6 nM |
| CCn1ncc2c(NC3CCCC3)c(-c3nnc(C(C)C)s3)cnc21 [Example 6, N-Cyclopentyl-1-ethyl-5-(5-isopropyl-1,3,4-thiadiazol-2-yl)-1H-pyrazolo[3,4-b]pyridin-4-amine] | 7.94 nM |
| CCn1ncc2c(NC3CCOCC3)c(-c3nnc(CN(C)C(C)=O)o3)cnc21 [Example 76, N-({5-[1-Ethyl-4-(tetrahydro-2H-pyran-4-ylamino)-1H-pyrazolo[3,4-b]pyridin-5-yl]-1,3,4-oxadiazol-2-yl}methyl)-N-methylacetamide] | 0.794 to 31.6 nM |
| CCn1ncc2c(N[C@H]3CC[C@H](O)CC3)c(-c3nnc(C)o3)cnc21 [Example 61, trans-4-{[1-Ethyl-5-(5-methyl-1,3,4-oxadiazol-2-yl)-1H-pyrazolo[3,4-b]pyridin-4-yl]amino}cyclohexanol] | 63.1 to 251 nM |
| CCn1ncc2c(NC3CCOCC3)c(-c3nnc(C4CCCO4)o3)cnc21 (stereo not shown) [Example 44, 1-Ethyl-5-[5-(tetrahydrofuran-2-yl)-1,3,4-oxadiazol-2-yl]-N-(tetrahydro-2H-pyran-4-yl)-1H-pyrazolo[3,4-b]pyridin-4-amine] | 0.794 to 31.6 nM |
| CCn1ncc2c(NCC(C)C)c(-c3nnc(C)o3)cnc21 [Example 12, 1-Ethyl-N-isobutyl-5-(5-methyl-1,3,4-oxadiazol-2-yl)-1H-pyrazolo[3,4-b]pyridin-4-amine] | 12.6 nM |
| CCn1ncc2c(NC3CCOCC3)c(-c3nnc(CN4CCOCC4)o3)cnc21 [Example 39, 1-Ethyl-5-[5-(morpholin-4-ylmethyl)-1,3,4-oxadiazol-2-yl]-N-(tetrahydro-2H-pyran-4-yl)-1H-pyrazolo[3,4-b]pyridin-4-amine] | 0.794 to 31.6 nM |
| CCn1ncc2c(N[C@@H](C)C(C)C)c(-c3nnc(CS(C)(=O)=O)o3)cnc21 [Example 26, N-[(1S)-1,2-dimethylpropyl]-1-ethyl-5-{5-[(methylsulfonyl)methyl]-1,3,4-oxadiazol-2-yl}-1H-pyrazolo[3,4-b]pyridin-4-amine] | 0.794 to 31.6 nM |
| CCn1ncc2c(NC3CCOCC3)c(-c3nc(CC(=O)N4CCCC4)no3)cnc21 [Example 84, 1-Ethyl-5-{3-[2-oxo-2-(1-pyrrolidinyl)ethyl]-1,2,4-oxadiazol-5-yl}-N-(tetrahydro-2H-pyran-4-yl)-1H-pyrazolo[3,4-b]pyridin-4-amine] | 0.794 to 31.6 nM |
